According to patent US11446352B2, “Compositions and methods for inhibiting tumor-induced immune suppression” (priority 2017, dated 2022):

Tests used:
[1] = tested on: Hsp90β on the surface of E0771 and AT3 cells; experiment: FACS analysis of Hsp90β expression on the cell surface; type: cell-based, murine; settings: in vitro (E0771, AT3 cell culture) and in vivo (E0771 tumors)
From the text: FIGS. 2I-2K show FACS analysis of Hsp90β expression on the cell surface of E0771 cells treated with DMSO or EnnA. FIGS. 2L-2N show FACS analysis of the ratio of Hsp90α to Hsp90β expression on the cell surface of E0771 cells treated with DMSO or EnnA. FIGS. 2O-2Q show FACS analysis of Hsp90α expression on the cell surface of E0771 cells treated with DMSO or EnnA. FIG. 2R is a bar graph showing expression of Hsp90β on the surface of AT3 cells treated with DMSO or EnnA. FIG. 2S is a bar graph showing expression of Hsp90α on the surface of AT3 cells treated with DMSO or EnnA. FIGS. 2T-2X show FACS analysis of Hsp90β expression on the surface of E0771 tumor cells treated with mIgG, DMSO, or EnnA.

[2] = tested on: murine breast cancer cells; experiment: qPCR analysis of mRNA level of cytokines, chemokines, PDL1 and IDO; type: cell-based
Protocol: FIG. 3A-3B are autoradiographs of a Western blot showing expression of the indicated proteins in control (left lane) and 0.5 μM EnnA-treated (right lane) E0771 (FIG. 3A) and AT3 (FIG. 3B) cells. FIG. 3C is a graph showing FACS analysis of PD-L1 level in AT3 cells. FIGS. 3D-3K are graphs showing qPCR analysis of the mRNA level of cytokines TNFa (FIG. 3D), IL-6 (FIG. 3E), TGFb1 (FIG. 3F) and IL-10 (FIG. 3G), the chemokines S100a9 (FIG. 3J) and CCL3 (FIG. 3K), as well as PDL1 (FIG. 3H) and IDO (FIG. 3I). FIGS. 3L-3Q are micrographs of HEK293 cells transiently transfected with GFP-IDO fusion protein expressing or GFP alone plasmids for 24 h. Cells were then treated with 5 μM EnnA for 6 h and analyzed for green fluorescence and bright light. FIG. 3R is a line graph of μg/ml of tryptophan and its IDO-mediated product kynurenine using the previously reported HPLC-based assay.

E0771 tumors = experiment: E0771 tumor model in immunocompromised nude mice; type: in vivo; settings: 10 mg/kg every other day
Protocol: 50,000 E0771 cells were surgically implanted in mammary fad pad of 10 C57BL/6 immunocompetent mice and 10 immunocompromised nude mice. 12 days after surgery, B6 and nude mice were divided into two groups each. the EnnA group was injected with 10 mg/kg of EnnA every other day, and the control group received a mixture of 15% DMSO and 20% cremophor in PBS.

[3] = tested on: E0771 tumor microenvironment; experiment: analysis of tumors and splenocytes from EnnA-treated mice (Western blot, FACS, immunohistochemistry, immunofluorescence); type: in vivo
Protocol: FIG. 5A is a line graph of tumor volume (mm^3) versus time (days) of mice injected with 100,000 E0771. Ten days after surgery, mice were divided into two groups: the EnnA group was injected with 10 mg/kg of EnnA. every other day, and the control group received a mixture of 15% DMSO and 20% cremophor in PBS. FIG. 5B is a line graph of body weight versus time (days) of mice treated with DMSO or EnnA. FIG. 5C is autoradiograph of a Western blot of four animals from each group using the indicated specific antibodies. FIG. 5D is a bar graph of % of gated cells treated with DMSO or EnnA showing FACS analysis of tumor cells for PDL1. FIG. 5E-5J is a panel of micrographs showing immunohistochemistry analysis of H&E staining of tumors from control and EnnA mice for analysis of necrotic tissue. FIGS. 5K-5P is a panel of micrographs showing immunohistochemistry analysis of tumors from control and EnnA mice for analysis of immune cells infiltration using anti-CD45 antibody. FIG. 5Q is a bar graph of % of gated cells treated with DMSO showing that EnnA treatment reduces CD4+/Foxp3+ Tregs. FIG. 5R is a bar graph of % of gated cells treated with DMSO or EnnA showing that EnnA treatment reduces CD11b+Gr-1+ MDSCs. FIG. 5S is a bar graph of % of gated cells treated with DMSO or EnnA showing that EnnA treatment reduces the number of CD8+/PD-1+ lymphocytes. FIG. 5T is a bar graph of % of cells treated with DMSO or EnnA showing that EnnA treatment increase the number of GR-1-CD11c+CD103+ lymphocytes.
FIGS. 8A-8L show immunofluorescent staining of E0771 tumors using anti-CD45 and anti-CD8β antibodies. FIGS. 8M-8T show immunofluorescent staining of E0771 tumors using anti-CD45 and anti-CTLA-4 antibodies. […] FIG. 8V is a bar graph showing the results of FACS analysis of CD8 positive cells in E0771 tumor-bearing mice treated with DMSO, EnnA, αCD8, or EnnA+αCD8. The X axis represents treatment group and the Y axis represents percent CD8 positive cells. FIG. 8W is a model for EnnA inhibition of Hsp 90 machinery and its impacts on the immune suppressive mechanism through PD-1 and IDO.
100,000 E0771 cells were surgically implanted in mammary fat pad of 20 mice. Ten days after surgery, mice were divided into two groups: the EnnA group was injected with 10 mg/kg of EnnA every other day, and the control group received a mixture of 15% DMSO and 20% cremophor in PBS.

SMILES: CC[C@H](C)[C@H]1C(=O)O[C@H](C(C)C)C(=O)N(C)[C@@H]([C@@H](C)CC)C(=O)O[C@H](C(C)C)C(=O)N(C)[C@@H]([C@@H](C)CC)C(=O)O[C@H](C(C)C)C(=O)N1C [EnnA, Enniatin A]
- exposure of Hsp90β to the surface of cancer cells [1]: induces exposure
- level of anti-inflammatory IL-10 mRNA [2]: reduces
- mRNA expression of IL-6 [2]: significant increase
- mRNA expression of TGFβ [2]: significant increase
- mRNA expression of TNFα [2]: significant increase
- mRNA expression of indolamine 2,3 dioxygenase [2]: highly increased
- mRNA level of chemokine CCL3 [2]: reduces
- mRNA level of chemokine S100a9 [2]: reduces
- mRNA and protein levels of PDL-1 ([2]; Western blot / FACS): reduces
- anti-tumor activity (tumor volume) (E0771 tumors): no significant anti-tumor activity
- PD-1 expression of infiltrating CD8+ lymphocytes ([3]; FACS): lower levels
- number of CD4+Foxp3+ T regulatory cells (Tregs) in tumors ([3]; FACS): significantly reduced
- number of MDSCs in tumors ([3]; FACS, CD11b+Gr-1+): significantly reduced
- number of GR-1-CD11c+CD103+ lymphocytes ([3]; FACS, FIG. 5T): increase
- tumor necrosis ([3]; H&E staining): heavily necrotic
- Hsp90 client proteins in tumors ([3]; Western blot of tumors from treated mice): destabilized
- infiltration of tumors by T lymphocytes ([3]; anti-CD45 immunohistochemistry): massive infiltration
- infiltration of tumors with CD45+, CD8β+ T cells ([3]; immunofluorescent staining): higher infiltration
- proportion of CD8β cells in spleenocytes ([3]; tumor bearing animals, FACS): increase
- PD-L1 and IDO in vivo ([3]; tumors, Western blot and FACS): destabilizes
